Assay: Quantification of the DOX encapsulation percentage in the nanoparticle
Format: physicochemical
Details: DOX with respect to the mass of PLGA in the nanoparticles; mean ± DE, n = 3
Procedure: To evaluate the DOX release profile contained in anti-GZMB PLGA/DOX/Ch/ICG NPs, firstly, the quantification of the encapsulation percentage in the nanoparticle was performed by dissolving the PLGA NPs pellet in acetone, quantifying the fluorescence intensity and interpolating fluorescence intensity against DOX standard; this assay was performed in fluorescence plates of 96-well Clear Bottom (Corning®—CLS3904) using excitation and emission at 488 and 560 nm, respectively.

## COc1cccc2c1C(=O)c1c(O)c3c(c(O)c1C2=O)C[C@@](O)(C(=O)CO)C[C@@H]3O[C@H]1C[C@H](N)[C@H](O)[C@H](C)O1 [DOX, doxorubicin]
  Encapsulation percentage (w/w): 7.32 ± 1.4 percentage (w/w)

Reference: US20230285457A1, “NANOPARTICLES FOR CANCER TREATMENT” (Universidad de Guadalajara, priority 2019, published 2023)
